Source: patent US8017629B2, “Compounds and uses thereof in modulating amyloid β” (Neurogenetic Pharmaceuticals, Inc., priority 2003, dated 2011)
Read-outs that look alike come from different tables or passages of the source.

Assays:
[1] = target: BACE Enzyme (Homo sapiens, UniProt P56817); assay: BACE Enzyme Potency (Table 12); assay type: biochemical
[2] = tested on: Aβ42 levels in the extracellular medium; assay: FRET (HTRF) assay, Aβ42 level of the extracellular medium of SH-SY5Y-APP cells; assay type: cell-based; details: Homo sapiens, concentration at which reduction of Aβ42 level was half of the maximum reduction, read-out: Ab42 Potency
[3] = Table 12, class symbols, read-out: BACE Enzyme Potency

Sequence of BACE Enzyme (P56817 46-501, species assumed): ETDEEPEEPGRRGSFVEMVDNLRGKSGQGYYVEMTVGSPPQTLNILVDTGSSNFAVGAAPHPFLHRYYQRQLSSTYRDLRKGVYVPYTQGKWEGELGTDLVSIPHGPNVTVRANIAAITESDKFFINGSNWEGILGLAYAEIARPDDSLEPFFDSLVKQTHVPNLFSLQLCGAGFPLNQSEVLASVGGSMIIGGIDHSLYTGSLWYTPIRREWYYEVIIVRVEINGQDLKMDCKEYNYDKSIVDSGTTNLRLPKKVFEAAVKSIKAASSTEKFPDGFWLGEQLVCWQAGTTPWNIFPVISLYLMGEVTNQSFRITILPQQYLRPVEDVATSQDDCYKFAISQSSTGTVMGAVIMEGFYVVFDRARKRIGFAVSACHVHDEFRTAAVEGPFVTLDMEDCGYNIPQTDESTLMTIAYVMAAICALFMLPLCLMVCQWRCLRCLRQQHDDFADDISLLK

SMILES	IC50 [1, 3] [nM]	EC50 [2] [nM]	also measured
COc1ccc(-c2csc(Nc3ccc(Br)cc3)n2)c(OC)c1 [Compound 362]	200 to 1000		
COc1cc(Nc2nc(-c3ccc(F)cc3)cs2)cc(OC)c1OC [Compound 354]	200 to 1000		
COc1ccc(-c2csc(Nc3ccc(OC)c(OC)c3)n2)c(OC)c1 [Compound 353]	200 to 1000		
COc1ccc(-c2csc(Nc3ccc4[nH]cnc4c3)n2)c(OC)c1 [Compound 374]	200 to 1000		
CCN(CC)c1ccc(Nc2nc(-c3ccc(-n4cnc(C)c4)cc3)cs2)c(C)c1 [Compound 380]	1100 to 5000		
c1cn(-c2ccc(-c3csc(Nc4ccc5[nH]ccc5c4)n3)cc2)cn1 [Compound 370]	200 to 1000		
CSc1cccc(Nc2nc(-c3ccc(-n4ccnc4)cc3)cs2)c1 [Compound 371]	200 to 1000		
c1cc(Nc2nc(-c3ccc4c(c3)OCO4)cs2)c2cn[nH]c2c1 [Compound 377]	200 to 1000		
COc1ccc(-c2csc(Nc3ccc(N(C)C)cc3)n2)c(OC)c1 [Compound 355]			IC50 [1]: 1100 to 5000 nM
CCN(c1ccc(N2CCOCC2)cc1)c1nc(-c2ccc(-n3ccnc3)cc2)cs1 [Compound 381]	5100 to 10000		
Cc1ccc(Nc2nc(-c3ccc(Br)cc3)co2)c(C)c1 [Compound 344]		1100 to 5000	
CN(C)S(=O)(=O)c1ccc(-c2csc(Nc3ccc4[nH]cnc4c3)n2)cc1 [Compound 157]		10100 to 30000	
Cc1cn(-c2ccc(-c3csc(Nc4c(Cl)cc(Cl)cc4Cl)n3)cc2)cn1 [Compound 238]		1100 to 5000	
CCN(CC)c1ccc(Nc2nc(-c3ccc(-n4cnc(Br)c4)cc3)cs2)c(C)c1 [Compound 199]		200 to 1000	
CCc1cc(N(CC)CC)ccc1Nc1nc(-c2ccc(-n3ccnc3)cc2)cs1 [Compound 241]		1100 to 5000	
Cc1cn(-c2ccc(-c3csc(Nc4cc(C)c(C)cc4C)n3)cn2)cn1 [Compound 262]		200 to 1000	

SMILES	IC50 [1, 3] [nM]	EC50 [2] [nM]	also measured
CCN(CCOC)c1ccc(Nc2nc(-c3ccc(-n4ccnc4)cc3)cs2)c(C)c1 [Compound 230]		1100 to 5000	
CCc1ccc(C)nc1Nc1ccc(C)c(Nc2nc(-c3ccc(-n4ccnc4)cc3)cs2)c1 [Compound 257]		5100 to 10000	
COc1ccc(-c2csc(Nc3ccc4[nH]cnc4c3)n2)c(OC)c1 [Compound 160]		200 to 1000	
COc1ccc(-c2csc(Nc3ccc4c(c3)OCO4)n2)c(OC)c1 [Compound 104]		1100 to 5000	
CCN(C)c1ccc(C)c(Nc2nc(-c3ccc(-n4cnc(C)c4)cc3)cs2)c1 [Compound 347]		< 200	
Cc1cn(-c2ccc(-c3csc(Nc4cc(-n5cccc5)ccc4C)n3)cn2)cn1 [Compound 277]		< 200	
CCCN(CC)c1ccc(C)c(Nc2nc(-c3ccc(-n4cnc(C)c4)nc3)cs2)c1 [Compound 284]		< 200	
CCN(CC)c1cc(C)c(Nc2nc(-c3ccc(-n4cnc(C)c4)nc3)cs2)cc1C [Compound 286]		< 200	
CCN(CC)c1ccc(Nc2nc(-c3ccc(-n4cc(C(C)=O)nn4)cc3)cs2)c(C)c1 [Compound 274]		1100 to 5000	
CCN(CCO)c1ccc(Nc2nc(-c3ccc(-n4cnc(C)c4)cc3OC)cs2)c(C)c1 [Compound 207]		1100 to 5000	
COc1cc(Nc2nc(-c3ccc(O)c(O)c3)cs2)cc(OC)c1OC [Compound 112]		10100 to 30000	
Cc1cn(-c2ccc(-c3nc(Nc4cc(-n5cccc5)ccc4C)sc3C)cc2)cn1 [Compound 278]		200 to 1000	
CCN(CC)c1ccc(C)c(Nc2nc(-c3ccc(-n4ccnc4)cc3)cs2)c1 [Compound 265]		< 200	
CCN(CC)c1ccc(Nc2nc(-c3ccc(-n4cnc(C)c4)cc3C(F)(F)F)cs2)c(C)c1 [Compound 227]		5100 to 10000	
COc1ccc(-c2csc(Nc3ccc(C)c(Cl)c3)n2)c(OC)c1 [Compound 194]		1100 to 5000	
Cc1cc(C)c(Nc2nc(-c3ccc(-n4cnc(Br)c4)cc3)cs2)c(C)c1 [Compound 251]		1100 to 5000	

Continued, in another order:

IC50 [1, 3] [nM]	EC50 [2] [nM]	SMILES	also measured
200 to 1000		CN1CCN(c2ccc(-c3csc(Nc4ccc(Cl)cc4)n3)cc2)CC1 [Compound 378]	
200 to 1000		CC(C)N(c1ccccc1)c1ccc(Nc2nc(-c3ccc(-n4ccnc4)cc3)cs2)cc1 [Compound 373]	
200 to 1000		CSc1cccc(Nc2nc(-c3ccc(N4CCN(C)CC4)cc3)cs2)c1 [Compound 372]	
200 to 1000		CCOC(=O)c1ccc(Nc2nc(-c3ccc(N4CCN(C)CC4)cc3)cs2)cc1 [Compound 382]	
1100 to 5000		CN1CCN(c2ccc(-c3csc(Nc4ccc5[nH]ncc5c4)n3)cc2)CC1 [Compound 368]	
< 200		CN1CCN(c2ccc(-c3csc(Nc4cccc5cccnc45)n3)cc2)CC1 [Compound 360]	
200 to 1000		COc1cc(Nc2nc(-c3ccc(N4CCN(C)CC4)cc3)cs2)cc(OC)c1OC [Compound 356]	
< 200		CN1CCN(c2ccc(-c3csc(Nc4ccc(Cl)c(Cl)c4)n3)cc2)CC1 [Compound 366]	
5100 to 10000		COc1cccc(CNc2nc(-c3ccc(N4CCN(C)CC4)cc3)cs2)c1 [Compound 365]	
200 to 1000		CN1CCN(c2ccc(-c3csc(Nc4cccc(Cl)c4)n3)cc2)CC1 [Compound 376]	
< 200		CN1CCN(c2ccc(-c3csc(Nc4ccc5c(c4)OCCO5)n3)cc2)CC1 [Compound 364]	
200 to 1000		CCc1ccc(Nc2nc(-c3ccc(N4CCCC4)cc3)cs2)cc1 [Compound 363]	
200 to 1000		CN1CCN(c2ccc(-c3csc(Nc4ccc5ccccc5c4)n3)cc2)CC1 [Compound 359]	
200 to 1000		CSc1cccc(Nc2nc(-c3ccc(N4CCCC4)cc3)cs2)c1 [Compound 379]	
1100 to 5000		CCN1CCN(c2ccc(-c3csc(Nc4ccc5c(c4)OCO5)n3)cc2)CC1 [Compound 375]	
1100 to 5000		CN1CCN(c2ccc(-c3csc(Nc4ccc5c(cnn5C)c4)n3)cc2)CC1 [Compound 367]	
200 to 1000		CN1CCN(c2ccc(-c3csc(Nc4ccc(N(C)C)cc4)n3)cc2)CC1 [Compound 358]	
200 to 1000		Brc1ccc(Nc2nc(-c3ccc(N4CCCC4)cc3)cs2)cc1 [Compound 361]	
< 200		CN1CCN(c2ccc(-c3csc(Nc4ccc(Oc5ccccc5)cc4)n3)cc2)CC1 [Compound 369]	
	1100 to 5000	Cc1cn(-c2ccc(-c3csc(Nc4ccc(N5CCOCC5)c(Cl)c4)n3)cc2)cn1 [Compound 225]	
	5100 to 10000	CC(C)N1CCN(C(=O)c2ccc(Nc3nc(-c4ccc(N5CCN(C)CC5)cc4)cs3)cc2)CC1 [Compound 192]	
200 to 1000		CN1CCN(c2ccc(-c3csc(Nc4ccc5c(c4)OCO5)n3)cc2)CC1 [Compound 357]	
	1100 to 5000	Cc1cc(N2CCN(C)CC2)ccc1Nc1nc(-c2ccc(-n3ccnc3)cc2)cs1 [Compound 200]	
	5100 to 10000	COc1ccc(Nc2nc(-c3ccc(N4CCCC4)cc3)cs2)cc1OC [Compound 113]	
	200 to 1000	CN1CCN(c2ccc(-c3csc(Nc4ccc(Cl)cc4)n3)cc2)CC1 [Compound 148]	
	200 to 1000	CN1CCN(c2ccc(-c3csc(Nc4ccc(Cl)c(Cl)c4)n3)cc2)CC1 [Compound 139]	
